This note sets out measurements from patent publication US8071605B2, “Piperidine compounds for use in the treatment of bacterial infections” (AstraZeneca AB, priority 2008, dated 2011).

Structures are written as SMILES.

A word on the inhibition: it is the drop in the measured response relative to a control, in per cent.

Sequence of S. aureus GyrB ATPase (P0AES4 whole entry): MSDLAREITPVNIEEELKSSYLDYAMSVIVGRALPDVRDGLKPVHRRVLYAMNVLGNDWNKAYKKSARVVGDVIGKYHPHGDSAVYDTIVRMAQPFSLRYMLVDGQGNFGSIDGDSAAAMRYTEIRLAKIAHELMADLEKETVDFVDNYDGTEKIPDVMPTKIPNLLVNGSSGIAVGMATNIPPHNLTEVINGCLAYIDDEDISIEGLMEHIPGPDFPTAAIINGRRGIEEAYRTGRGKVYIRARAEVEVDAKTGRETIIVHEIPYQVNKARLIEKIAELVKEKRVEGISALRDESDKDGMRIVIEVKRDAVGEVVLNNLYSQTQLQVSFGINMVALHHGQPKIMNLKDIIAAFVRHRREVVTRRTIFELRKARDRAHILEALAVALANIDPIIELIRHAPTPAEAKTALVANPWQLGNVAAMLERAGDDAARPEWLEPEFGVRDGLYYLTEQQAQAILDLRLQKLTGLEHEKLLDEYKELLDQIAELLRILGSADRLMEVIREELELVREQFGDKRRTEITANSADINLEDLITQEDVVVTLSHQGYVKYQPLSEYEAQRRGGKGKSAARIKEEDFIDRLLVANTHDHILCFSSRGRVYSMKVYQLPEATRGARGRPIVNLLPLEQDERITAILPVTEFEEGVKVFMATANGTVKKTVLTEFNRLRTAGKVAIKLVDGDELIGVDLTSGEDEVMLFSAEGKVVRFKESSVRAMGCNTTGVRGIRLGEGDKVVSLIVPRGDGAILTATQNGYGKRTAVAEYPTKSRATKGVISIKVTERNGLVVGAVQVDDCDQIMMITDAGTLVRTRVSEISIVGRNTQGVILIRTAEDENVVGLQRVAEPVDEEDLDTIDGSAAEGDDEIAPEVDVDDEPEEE
Sequence of S. aureus GyrB ATPase (P0A0K8 whole entry): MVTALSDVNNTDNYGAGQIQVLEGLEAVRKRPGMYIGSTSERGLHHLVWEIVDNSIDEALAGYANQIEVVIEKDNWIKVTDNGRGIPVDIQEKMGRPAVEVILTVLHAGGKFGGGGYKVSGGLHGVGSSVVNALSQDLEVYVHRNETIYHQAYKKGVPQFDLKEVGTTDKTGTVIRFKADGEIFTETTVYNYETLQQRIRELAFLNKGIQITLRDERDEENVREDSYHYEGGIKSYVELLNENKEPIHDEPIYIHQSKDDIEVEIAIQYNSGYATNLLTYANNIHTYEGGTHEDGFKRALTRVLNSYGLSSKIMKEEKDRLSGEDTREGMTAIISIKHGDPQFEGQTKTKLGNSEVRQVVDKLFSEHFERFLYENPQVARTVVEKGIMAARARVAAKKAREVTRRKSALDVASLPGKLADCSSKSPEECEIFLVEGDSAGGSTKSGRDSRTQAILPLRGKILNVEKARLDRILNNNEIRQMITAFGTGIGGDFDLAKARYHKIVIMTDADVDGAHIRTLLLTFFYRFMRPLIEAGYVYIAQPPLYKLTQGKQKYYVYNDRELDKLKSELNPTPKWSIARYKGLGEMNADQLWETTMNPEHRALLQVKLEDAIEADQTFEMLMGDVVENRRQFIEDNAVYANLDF

The target in this test is S. aureus GyrB ATPase (Staphylococcus aureus, UniProt P0A0K8). In words: S. aureus GyrB ATPase inhibition (ammonium molybdate/malachite green phosphate detection). The class given is biochemical. As to conditions: compound concentration of 1 μM (unless otherwise noted). How it is done:
E. coli GyrB ATPase Inhibition Activity: Compounds can be tested for inhibition of E. coli GyrB ATPase activity using an ammonium molybdate/malachite green-based phosphate detection assay (Lanzetta, P. A., L. J. Alvarez, P. S. Reinach, and O. A. Candia, 1979, 100: 95-97). Assays can be performed in multiwell plates in 30 μl reactions containing: 50 mM Hepes buffer pH 7.5, 75 mM ammonium acetate, 8.0 mM magnesium chloride, 0.5 mM ethylenediaminetetraacetic acid, 5% glycerol, 1 mM 1,4-Dithio-DL-threitol, 200 nM bovine serum albumin, 1.6 μg/ml sheared salmon sperm DNA, 400 pM E. coli GyrA, 400 pM E. coli GyrB, 250 μM ATP, and compound in dimethylsulfoxide. Reactions can be quenched with 30 μl of ammonium molybdate/malachite green detection reagent containing 1.2 mM malachite green hydrochloride, 8.5 mM ammonium molybdate tetrahydrate, and 1 M hydrochloric acid. Plates can be read in an absorbance plate reader at 650 nm and percent inhibition values are calculated using dimethylsulfoxide (2%)-containing reactions as 0% inhibition and EDTA-containing (2.4 μM) reactions as 100% inhibition controls. An IC50 measurement of compound potency for each compound can be determined from reactions performed in the presence of 10 different compound concentrations. E. coli Topoisomerase IV ATPase Inhibition Activity: Compounds can be tested for inhibition of E. coli topoisomerase IV ATPase activity as described above for E. coli GyrB except the 30 μl reactions contained the following: 20 mM TRIS buffer pH 8, 50 mM ammonium acetate, 8 mM magnesium chloride, 5% glycerol, 5 mM 1,4-Dithio-DL-threitol, 0.005% Brij-35, 5 μg/ml sheared salmon sperm DNA, 500 pM E. coli ParC, 500 pM E. coli ParE, 160 μM ATP, and compound in dimethylsulfoxide. An IC50 measurement of compound potency for each compound can be determined from reactions performed in the presence of 10 different compound concentrations. S. aureus GyrB ATPase Inhibition Activity: Compounds may be tested for inhibition of S. aureus GyrB ATPase activity using an ammonium molybdate/malachite green-based phosphate detection assay (Lanzetta, P. A., L. J. Alvarez, P. S. Reinach, and O. A. Candia, 1979, 100: 95-97). Assays can be performed in multiwell plates in 30 μl reactions containing: 50 mM Hepes buffer pH 7.5, 75 mM ammonium acetate, 8.0 mM magnesium chloride, 0.5 mM ethylenediaminetetraacetic acid, 5% glycerol, 1.0 mM 1,4-Dithio-DL-threitol, 200 nM bovine serum albumin, 1.0 μg/ml sheared salmon sperm DNA, 250 pM E. coli GyrA, 250 pM S. aureus GyrB, 250 μM ATP, and compound in dimethylsulfoxide. Reactions can be quenched with 30 μl of ammonium molybdate/malachite green detection reagent containing 1.2 mM malachite green hydrochloride, 8.5 mM ammonium molybdate tetrahydrate, and 1 M hydrochloric acid. Plates can be read in an absorbance plate reader at 650 nm and percent inhibition values can be calculated using dimethylsulfoxide (2%)-containing reactions as 0% inhibition and EDTA-containing (2.4 μM) reactions as 100% inhibition controls. An IC50 measurement of compound potency for each compound can be determined from reactions performed in the presence of 10 different compound concentrations.
Compounds of the invention were tested in an assay substantially similar to the assay described above for measuring the inhibition of S. aureus GyrB ATPase. Percent inhibition of S. aureus GyrB ATPase at a compound concentration of 1 μM (unless otherwise noted) is disclosed in the following table: […]
Regarding `CO[C@H]1CN(c2nc(-c3cnc(NCCN4CCN(C)CC4)cn3)c(C(=O)O)s2)CC[C@H]1NC(=O)c1[nH]c(C)c(Cl)c1Cl` [Example 133], the inhibition at 1 µM stood at 112%.

As to `Cc1[nH]c(C(=O)N[C@@H]2CCN(c3nc(-c4cnc(NCCN5CCN(C)CC5)cn4)c(C(=O)O)s3)C[C@@H]2C)c(Cl)c1Cl` [Example 175, 2-[(3S,4R)-4-{[(3,4-dichloro-5-methyl-1H-pyrrol-2-yl)carbonyl]amino}-3-methylpiperidin-1-yl]-4-(5-{[2-(4-methylpiperazin-1-yl)ethyl]amino}pyrazin-2-yl)-1,3-thiazole-5-carboxylic acid], the inhibition at 1 µM was 106%.

For the compound `Cc1[nH]c(C(=O)N[C@@H]2CCN(c3nc(-c4cnccn4)c(C(=O)O)s3)C[C@@H]2C)c(C#N)c1Cl` [Example 29], the inhibition at 1 µM is 98%.

Consider `C=CCO[C@H]1CN(c2nc(-c3cnccn3)c(C(=O)O)s2)CC[C@H]1NC(=O)c1[nH]c(C)c(Cl)c1Cl` [Example 4], for which the inhibition at 1 µM was 97%.

As for `CCCO[C@H]1CN(c2nc(-c3ncnn3C)c(C(=O)O)s2)CC[C@H]1NC(=O)c1[nH]c(C)c(Cl)c1C#N` [Example 208, 2-[(3S,4R)-4-{[(4-chloro-3-cyano-5-methyl-1H-pyrrol-2-yl)carbonyl]amino}-3-propoxypiperidin-1-yl]-4-(1-methyl-1H-1,2,4-triazol-5-yl)-1,3-thiazole-5-carboxylic acid], the inhibition at 1 µM stood at 108%.

For the compound `Cc1[nH]c(C(=O)N[C@@H]2CCN(c3nc(-c4ncnn4C)c(C(=O)O)s3)C[C@@H]2C)c(Cl)c1Cl` [Example 22], the inhibition at 1 µM was 112%.

With `CCCO[C@H]1CN(c2nc(-c3ncnn3C)c(C(=O)O)s2)CC[C@H]1NC(=O)c1[nH]c(C)c(Cl)c1Cl` [Example 215], the inhibition at 1 µM was found to be 106%.

Regarding `COCCNc1cnc(-c2nc(N3CC[C@@H](NC(=O)c4[nH]c(C)c(Cl)c4Cl)[C@@H](OC)C3)sc2C(=O)O)cn1` [Example 128], the inhibition at 1 µM amounted to 110%.

For `CCO[C@H]1CN(c2nc(-c3cnc(NCCOC)cn3)c(C(=O)O)s2)CC[C@H]1NC(=O)c1[nH]c(C)c(Cl)c1Cl` [Example 90], the inhibition at 1 µM worked out at 103%.

Turning to `Cc1[nH]c(C(=O)N[C@@H]2CCN(c3nc(-c4cnc(NCCN(C)C)cn4)c(C(=O)O)s3)C[C@@H]2C)c(Cl)c1Cl` [Example 174, 2-[(3S,4R)-4-{[(3,4-dichloro-5-methyl-1H-pyrrol-2-yl)carbonyl]amino}-3-methylpiperidin-1-yl]-4-(5-{[2-(dimethylamino)ethyl]amino}pyrazin-2-yl)-1,3-thiazole-5-carboxylic acid], the inhibition at 1 µM is 102%.

For the compound `C=CCO[C@H]1CN(c2nc(-c3ncccc3F)c(C(=O)O)s2)CC[C@H]1NC(=O)c1[nH]c(C)c(Cl)c1C#N` [Example 6], the inhibition at 1 µM amounted to 99%.

For the compound `CO[C@@H]1CN(c2nc(-c3cnc(N4CCN(C)CC4)cn3)c(C(=O)O)s2)CC[C@@H]1NC(=O)c1[nH]c(C)c(Cl)c1Cl` [Example 61, 2-[(3R,4S)-4-{[(3,4-dichloro-5-methyl-1H-pyrrol-2-yl)carbonyl]amino}-3-methoxypiperidin-1-yl]-4-[5-(4-methylpiperazin-1-yl)pyrazin-2-yl]-1,3-thiazole-5-carboxylic acid], the inhibition at 1 µM was 105%.

For `CO[C@H]1CN(c2nc(-c3cnc(N4CCN(CC(C)C)CC4)cn3)c(C(=O)O)s2)CC[C@H]1NC(=O)c1[nH]c(C)c(Cl)c1Cl` [Example 134], the inhibition at 1 µM is 104%.

On to `COCC(COC)Nc1cnc(-c2nc(N3CC[C@@H](NC(=O)c4[nH]c(C)c(Cl)c4Cl)[C@@H](C)C3)sc2C(=O)O)cn1` [Example 172, 2-[(3S,4R)-4-{[(3,4-dichloro-5-methyl-1H-pyrrol-2-yl)carbonyl]amino}-3-methylpiperidin-1-yl]-4-{5-[(1,3-dimethoxypropan-2-yl)amino]pyrazin-2-yl}-1,3-thiazole-5-carboxylic acid], for which the inhibition at 1 µM was found to be 109%.

For `CO[C@H]1CN(c2nc(-c3cnc(OCCN(C)C)cn3)c(C(=O)O)s2)CC[C@H]1NC(=O)c1[nH]c(C)c(Cl)c1Cl` [Example 63], the inhibition at 1 µM turned out to be 104%.

With `CCCO[C@H]1CN(c2nc(-c3nccn3CCOC)c(C(=O)O)s2)CC[C@H]1NC(=O)c1[nH]c(C)c(Cl)c1C#N` [Example 209, 2-[(3S,4R)-4-{[(4-chloro-3-cyano-5-methyl-1H-pyrrol-2-yl)carbonyl]amino}-3-propoxypiperidin-1-yl]-4-[1-(2-methoxyethyl)-1H-imidazol-2-yl]-1,3-thiazole-5-carboxylic acid], the inhibition at 1 µM was 105%.

As for `CCCO[C@H]1CN(c2nc(-c3nccn3CCOC)c(C(=O)O)s2)CC[C@H]1NC(=O)c1[nH]c(C)c(Cl)c1Cl` [Example 216, 2-[(3S,4R)-4-{[(3,4-dichloro-5-methyl-1H-pyrrol-2-yl)carbonyl]amino}-3-propoxypiperidin-1-yl]-4-[1-(2-methoxyethyl)-1H-imidazol-2-yl]-1,3-thiazole-5-carboxylic acid], the inhibition at 1 µM was found to be 109%.

Turning to `CCN1CCN(c2ccnc(-c3nc(N4CC[C@@H](NC(=O)c5[nH]c(C)c(Cl)c5Cl)[C@@H](OC)C4)sc3C(=O)O)n2)CC1` [Example 193, 2-[(3S,4R)-4-{[(3,4-dichloro-5-methyl-1H-pyrrol-2-yl)carbonyl]amino}-3-methoxypiperidin-1-yl]-4-[4-(4-ethylpiperazin-1-yl)pyrimidin-2-yl]-1,3-thiazole-5-carboxylic acid], the inhibition at 1 µM was found to be 109%.

For the compound `CCO[C@H]1CN(c2nc(-c3cnc(N4CCN(CC(C)C)CC4)cn3)c(C(=O)O)s2)CC[C@H]1NC(=O)c1[nH]c(C)c(Cl)c1Cl` [Example 96], the inhibition at 1 µM turned out to be 104%.

Consider `CO[C@H]1CN(c2nc(-c3cnc(N4CCCCC4)cn3)c(C(=O)O)s2)CC[C@H]1NC(=O)c1[nH]c(C)c(Cl)c1Cl` [Example 124], for which the inhibition at 1 µM worked out at 112%.

For `Cc1[nH]c(C(=O)N[C@@H]2CCN(c3nc(-c4cnc(NCCN5CCNC5=O)cn4)c(C(=O)O)s3)C[C@@H]2C)c(Cl)c1Cl` [Example 173, 2-[(3S,4R)-4-{[(3,4-dichloro-5-methyl-1H-pyrrol-2-yl)carbonyl]amino}-3-methylpiperidin-1-yl]-4-(5-{[2-(2-oxoimidazolidin-1-yl)ethyl]amino}pyrazin-2-yl)-1,3-thiazole-5-carboxylic acid], the inhibition at 1 µM came out at 104%.

As to `CO[C@H]1CN(c2nc(-c3cnc(NCCN4CCOCC4)cn3)c(C(=O)O)s2)CC[C@H]1NC(=O)c1[nH]c(C)c(Cl)c1Cl` [Example 130], the inhibition at 1 µM worked out at 107%.

On to `CCO[C@H]1CN(c2nc(-c3cnc(N4CCN(CC)CC4)cn3)c(C(=O)O)s2)CC[C@H]1NC(=O)c1[nH]c(C)c(Cl)c1Cl` [Example 100], for which the inhibition at 1 µM came to 102%.

Turning to `Cc1[nH]c(C(=O)N[C@@H]2CCN(c3nc(-c4cnc(N5CCN(CC6CCCCC6)CC5)cn4)c(C(=O)O)s3)C[C@@H]2C)c(Cl)c1Cl` [Example 178, 4-{5-[4-(cyclohexylmethyl)piperazin-1-yl]pyrazin-2-yl}-2-[(3S,4R)-4-{[(3,4-dichloro-5-methyl-1H-pyrrol-2-yl)carbonyl]amino}-3-methylpiperidin-1-yl]-1,3-thiazole-5-carboxylic acid], the inhibition at 1 µM turned out to be 102%.

As to `CO[C@H]1CN(c2nc(-c3cnc(N4CCN[C@H](C)C4)cn3)c(C(=O)O)s2)CC[C@H]1NC(=O)c1[nH]c(C)c(Cl)c1Cl` [Example 140], the inhibition at 1 µM worked out at 107%.
